Legend:
Format in all cases: cell-based, human
[1] = system: BRAFV600E melanoma cell lines; test: Hormonal co-treatment in vitro: cell cycle response to DT; conditions: cell culture, co-treatment with dabrafenib 1 μM and trametinib 100 nM
Experimental: (§1) In parallel, hormonal perturbations were evaluated in vitro using a panel of BRAFV600E melanoma cell lines derived from melanoma patients of the institution.
(§2) Melanoma cell lines derived from tumors of patients treated at UT MD Anderson Cancer Center under the TIL program were obtained from Dr. Chantale Bernatchez and Dr. Scott Woodman. For these studies, n=5 male (2373, 2400, 2650, 2800 and 624-mel) and n=5 female (2153, 2333, 2379, 2508, 2510) lines were selected based on carriage of BRAF^V600E/K mutations and avoidance of prior exposure in vivo to MAPK blockade therapies. Cells were maintained in phenol red-free RPMI-1640 supplemented with 10% heat-inactivated FBS, 1% GlutaMAX and 1% Pencillin/Streptomycin (all Gibco). LNCaP, MCF7 and PC3 cell lines were obtained from institutional stocks and maintained in RPMI-1640 supplemented as above (LNCaP, MCF7) or DMEM/F12 supplemented as above (PC3). All cell lines were confirmed mycoplasma negative using the Lonza MycoALERT kit prior to use, and authenticated by STR profiling via the MD Anderson Characterized Cell Line Core. […]

[2] = system: BRAFV600E melanoma cell lines; test: Hormonal co-treatment in vitro: proliferative response to DT; conditions: cell culture, co-treatment with dabrafenib 1 μM and trametinib 100 nM
[3] = system: BRAFV600E melanoma cell lines; test: Hormonal co-treatment in vitro: apoptosis response to DT; conditions: cell culture, co-treatment with dabrafenib 1 μM and trametinib 100 nM, 72 hours
Experimental: as §1
as §2, with “(PC3).” for “(PC3). All cell lines were confirmed mycoplasma negative using the Lonza MycoALERT kit prior to use, and authenticated by STR profiling via the MD Anderson Characterized Cell Line Core.”
Cells were plated into 6-well plates at 250,000 cells/well in full growth media and allowed to adhere overnight prior to drug treatment as shown in results in reduced-serum medium (5% FBS, phenol red-free RPMI-1640). […] Data acquisition by flow cytometry was performed within 2 hours of cell harvest and analyzed in FlowJo after gating on cell size, singlets, and applying Curly Quadrant gates to PI vs YO-PRO-1 fluorescence.

CNC(=O)c1ccc(N2C(=S)N(c3ccc(C#N)c(C(F)(F)F)c3)C(=O)C2(C)C)cc1F [enzalutamide]
no significant effects: effect on cell cycle response to DT treatment [1] | effect on proliferative response to DT treatment [2] | effect on apoptosis response to DT treatment [3]

C[C@]12CC[C@H]3[C@@H](CCC4=CC(=O)CC[C@@]43C)[C@@H]1CC[C@@H]2O [testosterone]
no significant effects: effect on cell cycle response to DT treatment [1] | effect on proliferative response to DT treatment [2] | effect on apoptosis response to DT treatment [3]
